Results: patent publication US8642597B2, “Pyrazole compounds for controlling invertebrate pests” (BASF SE, priority 2007, dated 2014)

Key:
Format in all cases: in vivo
[1] = tested on: Cowpea Aphid (aphis craccivora); assay: Cowpea aphid (aphis craccivora), spray on potted cowpea plants; details: population reduction assessed after 24, 72 and 120 hours, in comparison with untreated controls
Method: The active compounds were formulated in 50:50 (vol:vol) acetone:water. The test solution was prepared at the day of use.
Potted cowpea plants colonized with 100-150 aphids of various stages were sprayed after the pest population had been recorded. Population reduction was assessed after 24, 72, and 120 hours.

[2] = tested on: Boll Weevil (Anthonomus grandis); assay: Boll weevil (Anthonomus grandis), insect diet microtiter plate test; details: 120 h, concentration of the test solution 2500 mg/L, egg and larval mortality after 5 days
Method: The compounds were formulated in 75:25 (vol:vol) water:DMSO.
For evaluating control of boll weevil (Anthonomus grandis) the test unit consisted of 24-well-microtiter plates containing an insect diet and 20-30 A. grandis eggs. Different concentrations of formulated compounds were sprayed onto the insect diet at 20 μl, using a custom built micro atomizer, at two replications. After application, the microtiter plates were incubated at 23±1° C. and 50±5% relative humidity for 5 days. Egg and larval mortality was then visually assessed.

[3] = tested on: Vetch Aphid (Megoura viciae); assay: Vetch aphid (Megoura viciae), bean leaf disk microtiterplate test; details: foliar, 144 h, concentration of the test solution 2500 mg/L, 6 days
Method: The active compounds were formulated in 1:3 (vol:vol) DMSO:water with different concentrations of formulated compounds.
Bean leaf disks were placed into microtiterplates filled with 0.8% agar-agar and 2.5 ppm OPUS™. The leaf disks were sprayed with 2.5 μl of the test solution and 5 to 8 adult aphids were placed into the microtiterplates which were then closed and kept at 23±1° C. and 50±5% relative humidity under fluorescent light for 6 days. Mortality was assessed on the basis of vital, reproduced aphids. Aphid mortality and fecundity was then visually assessed.

[4] = tested on: Green Peach Aphid (Myzus persicae, Mixed Life Stages); assay: Green peach aphid (Myzus persicae, mixed life stages), pepper leaf dip test; details: foliar, 120 h, after 5 days, in comparison with untreated controls
Excerpt: (§1) The active compounds were formulated in 50:50 (vol:vol) acetone:water and 100 ppm Kinetica™ surfactant.
Pepper plants in the 2nd leaf-pair stage (variety ‘California Wonder’) were infested with approximately 40 laboratory-reared aphids by placing infested leaf sections on top of the test plants. The leaf sections were removed after 24 hr. The leaves of the intact plants were dipped into gradient solutions of the test compound and allowed to dry. Test plants were maintained under fluorescent light (24 hour photoperiod) at about 25° C. and 20-40% relative humidity. Aphid mortality on the treated plants, relative to mortality on check plants, was determined after 5 days.

[5] = tested on: Cotton Aphid (aphis gossypii, Mixed Life Stages); assay: Cotton aphid (aphis gossypii, mixed life stages), cotyledon dip test; details: 120 h, mortality counts after 5 days, in comparison with untreated controls
Excerpt: as §1
Cotton plants at the cotyledon stage (one plant per pot) were infested by placing a heavily infested leaf from the main colony on top of each cotyledon. The aphids were allowed to transfer to the host plant overnight, and the leaf used to transfer the aphids was removed. The cotyledons were dipped in the test solution and allowed to dry. After 5 days, mortality counts were made.

[6] = tested on: Southern Armyworm (spodoptera eridania, 2nd instar larvae); assay: Southern armyworm (spodoptera eridania, 2nd instar larvae), lima bean leaf dip test; details: foliar, 96 h, at 4 days, in comparison with untreated controls
Method: as §1
A pair of first true leaves of Sieva lima bean was dipped in the test solution and allowed to dry. The leaf was then placed in a plastic perforated zip enclosure bag and ten 2nd instar larvae were added. At 4 days, observations were made of mortality and reduced feeding.

Row | SMILES | mortality at 300 ppm [1] | mortality at 2500 µg/mL [2] | mortality at 2500 µg/mL [3] | mortality at 300 ppm [4] | mortality at 300 ppm [5] | mortality at 300 ppm [6]
1 | O=C(Nc1cccnc1)c1cnn(-c2ccccc2)c1 [Compound 106] | ≥ 75% | 100% | – | – | – | –
2 | O=C(Nc1cccnc1)c1cnn(-c2ccccc2Cl)c1C(F)F [Compound 148] | ≥ 75% | 100% | ≥ 80% | ≥ 50% | ≥ 75% | –
3 | Cn1cc(C(=O)Nc2cccnc2)cn1 [Compound 107] | ≥ 75% | 100% | ≥ 80% | ≥ 50% | ≥ 75% | –
4 | O=C(Nc1cccnc1)c1cnn(-c2ccc(Cl)cc2)c1C(F)F [Compound 86] | ≥ 75% | 100% | – | ≥ 50% | ≥ 75% | –
5 | CCCn1cc(C(=O)Nc2cccnc2)cn1 [Compound 108] | ≥ 75% | 100% | ≥ 80% | ≥ 50% | ≥ 75% | –
6 | O=C(Nc1cccnc1)c1cnn(Cc2ccc(Cl)cc2)c1 [Compound 81] | ≥ 75% | 100% | – | ≥ 50% | – | –
7 | O=C(Nc1cccnc1)c1cn[nH]c1 [Compound 87] | ≥ 75% | 100% | ≥ 80% | ≥ 50% | ≥ 75% | –
8 | Cn1nc(C(F)(F)F)c(C(=O)Nc2cccnc2)c1F [Compound 78] | – | – | – | – | – | ≥ 50%
9 | CCS/C(=N\c1cccnc1)c1cn(C)nc1C(F)(F)F [Compound 243] | ≥ 75% | 100% | ≥ 80% | ≥ 50% | ≥ 75% | –
10 | Cc1cccc(-n2ncc(C(=O)Nc3cccnc3)c2C(F)F)c1 [Compound 158] | ≥ 75% | – | ≥ 80% | ≥ 50% | ≥ 75% | ≥ 50%
11 | Cn1ncc(C(=O)Nc2cccnc2)c1C(F)F [Compound 167] | ≥ 75% | 100% | ≥ 80% | ≥ 50% | ≥ 75% | –
12 | O=C(Nc1cccnc1)c1cnn(-c2ccccn2)c1 [Compound 105] | – | 100% | – | ≥ 50% | ≥ 75% | –
13 | Cc1ccc(-n2ncc(C(=O)Nc3cccnc3)c2C(F)F)cc1 [Compound 138] | ≥ 75% | 100% | ≥ 80% | ≥ 50% | ≥ 75% | –
14 | N#CN(C(=O)c1cnn(C(F)F)c1C(F)F)c1cccnc1 [Compound 210] | ≥ 75% | – | ≥ 80% | ≥ 50% | ≥ 75% | –
15 | O=C(Nc1cccnc1)c1cn(C(F)F)nc1C(F)F [Compound 194] | ≥ 75% | 100% | ≥ 80% | ≥ 50% | ≥ 75% | –
16 | O=C(Nc1cccnc1)c1cnn(-c2ccc([N+](=O)[O-])cc2)c1C(F)(F)F [Compound 199] | ≥ 75% | – | – | ≥ 50% | ≥ 75% | ≥ 50%
17 | Cc1c(C(=O)Nc2cccnc2)cnn1C [Compound 179] | ≥ 75% | – | – | ≥ 50% | ≥ 75% | ≥ 50%
18 | O=C(Nc1cccnc1)c1cn(-c2ccc([N+](=O)[O-])cc2)nc1C(F)F [Compound 171] | – | 100% | – | – | – | –
19 | Cn1cc(C(=O)Nc2cccnc2)c(C(F)F)n1 [Compound 170] | ≥ 75% | – | – | ≥ 50% | ≥ 75% | ≥ 50%
20 | O=C(Nc1cccnc1)c1cnn(-c2ccc(F)cc2)c1C(F)(F)F [Compound 228] | – | – | ≥ 80% | ≥ 50% | ≥ 75% | ≥ 50%

Row | SMILES | mortality at 300 ppm [1] | mortality at 2500 µg/mL [2] | mortality at 2500 µg/mL [3] | mortality at 300 ppm [4] | mortality at 300 ppm [5] | mortality at 300 ppm [6]
21 | O=C(Nc1cccnc1)c1cnn(C(F)F)c1 [Compound 213] | ≥ 75% | – | – | ≥ 50% | ≥ 75% | ≥ 50%
22 | CN(C(=O)c1cnn(C)c1C(F)(F)F)c1cccnc1 [Compound 174] | ≥ 75% | – | – | ≥ 50% | ≥ 75% | ≥ 50%
23 | Cc1nn(C(F)F)cc1C(=O)Nc1cccnc1 [Compound 209] | ≥ 75% | – | – | ≥ 50% | ≥ 75% | ≥ 50%
24 | Cc1ccc(S(=O)(=O)N(C(=O)c2cn(C)nc2C(F)(F)F)c2cccnc2)cc1 [Compound 136] | ≥ 75% | – | ≥ 80% | ≥ 50% | ≥ 75% | –
25 | COc1ccccc1-n1ncc(C(=O)Nc2cccnc2)c1C(F)F [Compound 150] | – | 100% | ≥ 80% | ≥ 50% | ≥ 75% | –
26 | CC(C)c1c(C(=O)Nc2cccnc2)cnn1-c1ccccc1 [Compound 120] | ≥ 75% | – | ≥ 80% | ≥ 50% | ≥ 75% | –
27 | O=C(Nc1cccnc1)c1cnn(-c2cccc([N+](=O)[O-])c2)c1C(F)F [Compound 153] | – | 100% | ≥ 80% | – | – | –
28 | O=C(Nc1cccnc1)c1cnn(C(F)F)c1C(F)F [Compound 188] | ≥ 75% | 100% | – | ≥ 50% | ≥ 75% | –
29 | O=C(Nc1cccnc1)c1cnn(-c2c(F)cccc2F)c1C(F)F [Compound 162] | – | 100% | ≥ 80% | – | – | –
30 | CCn1ncc(C(=O)N(C)c2cccnc2)c1C(F)(F)F [Compound 186] | ≥ 75% | 100% | ≥ 80% | ≥ 50% | ≥ 75% | –
31 | Cn1cc(C(=O)Nc2cccnc2)c(C(F)(F)F)n1 [Compound 196] | ≥ 75% | – | – | ≥ 50% | ≥ 75% | ≥ 50%
32 | Cn1cc(C(=O)Nc2cccnc2)c(OC(F)F)n1 [Compound 110] | ≥ 75% | 100% | ≥ 80% | ≥ 50% | ≥ 75% | –
33 | Cc1ccccc1-n1ncc(C(=O)Nc2cccnc2)c1C(F)F [Compound 156] | ≥ 75% | 100% | ≥ 80% | ≥ 50% | ≥ 75% | –
34 | CCn1cc(C(=O)N(C)c2cccnc2)c(C(F)F)n1 [Compound 182] | ≥ 75% | – | ≥ 80% | ≥ 50% | ≥ 75% | –
35 | O=C(Nc1cccnc1)c1cnn(C(F)F)c1C(F)(F)F [Compound 190] | ≥ 75% | 100% | ≥ 80% | ≥ 50% | ≥ 75% | –
36 | CCc1c(C(=O)N(C)c2cccnc2)cnn1CC [Compound 185] | ≥ 75% | 100% | ≥ 80% | ≥ 50% | ≥ 75% | –
37 | Cc1cc(C(=O)Nc2cccnc2)n(C)n1 [Compound 3] | ≥ 75% | – | ≥ 80% | ≥ 50% | ≥ 75% | –
38 | O=C(Nc1cccnc1)c1cnn(C2CC2)c1 [Compound 119] | ≥ 75% | – | ≥ 80% | ≥ 50% | ≥ 75% | –
39 | CN(C(=O)c1cnn(C(F)(F)F)c1)c1cccnc1 [Compound 233] | – | – | – | ≥ 50% | ≥ 75% | ≥ 50%
40 | O=C(Nc1cccnc1)c1cn(C(F)F)nc1C(F)(F)F [Compound 192] | ≥ 75% | 100% | – | ≥ 50% | ≥ 75% | –
